# Results from PubChem BioAssay (NCI).
#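 48-hour exposure; five concentrations; linearly interpolated endpoints. The concentration for full growth arrest is given as TGI.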
# Tests used:
# Experiment in all cases: growth of human tumour cells (NCI), 48 h
# [1] = test system: SK-OV-3 ovarian
# [2] = test system: HOP-62 NSCLC
# [3] = test system: SF-268 CNS
# [4] = test system: UACC-62 melanoma
# [5] = test system: SW-620 colon
# [6] = test system: OVCAR-3 ovarian
# [7] = test system: NCI-H23 lung
# [8] = test system: SR leukemia
# [9] = test system: EKVX NSCLC
# [10] = test system: NCI-H226 lung
# [11] = test system: SN12C renal
# [12] = test system: SF-295 CNS
# [13] = test system: MDA-MB-435
# [14] = test system: SK-MEL-28 melanoma
# [15] = test system: CCRF-CEM leukemia
# [16] = test system: DU-145 prostate
# [17] = test system: CAKI-1 renal
# [18] = test system: UACC-257 melanoma
# [19] = test system: SF-539 CNS
# [20] = test system: HT29 colon
# [21] = test system: MCF7 breast
# [22] = test system: MALME-3M melanoma
# [23] = test system: RXF 393 renal
# [24] = test system: NCI-H460 lung
# [25] = test system: M14 melanoma
# [26] = test system: U251 CNS
# [27] = test system: HS 578T breast
# [28] = test system: A549 NSCLC
# [29] = test system: NCI-H522 lung
# [30] = test system: BT-549 breast
# [31] = test system: COLO 205 colon
# [32] = test system: TK-10 renal
# [33] = test system: ACHN renal
# [34] = test system: 786-0 renal
# [35] = test system: UO-31 renal
# [36] = test system: HCT-116 colon
# [37] = test system: IGROV1 ovarian
# [38] = test system: OVCAR-5 ovarian
# [39] = test system: A498 renal
# [40] = test system: SK-MEL-5 melanoma
# [41] = test system: LOX IMVI melanoma
# [42] = test system: PC-3 prostate
# [43] = test system: MDA-N
# [44] = test system: MDA-MB-231 breast
# [45] = test system: RPMI-8226 leukemia
# [46] = test system: K-562 leukemia
# [47] = test system: KM12 colon
# [48] = test system: HL-60(TB) leukemia
# [49] = test system: SNB-19 CNS
# [50] = test system: NCI/ADR-RES ovarian
# [51] = test system: OVCAR-8 ovarian
# [52] = test system: HCT-15 colon
# [53] = test system: MOLT-4 leukemia
# [54] = test system: T-47D breast
# [55] = test system: HCC-2998 colon
# [56] = test system: SK-MEL-2 melanoma
structure (smiles),measurement,setting,value
O=C1NC2CCCCC2N=C1/C(C(=O)c1ccccc1)=C(\O)c1ccccc1 (stereo unspecified),TGI,[1],84.8 µM
same,TGI,[2],> 100 µM
same,TGI,[3],> 100 µM
same,TGI,[4],68.9 µM
same,TGI,[5],> 100 µM
same,TGI,[6],> 100 µM
same,TGI,[7],> 100 µM
same,TGI,[8],92.3 µM
same,TGI,[9],> 100 µM
same,TGI,[10],46.8 µM
same,TGI,[11],> 100 µM
same,TGI,[12],> 100 µM
same,TGI,[13],> 100 µM
same,TGI,[14],> 100 µM
same,TGI,[15],84.7 µM
same,TGI,[16],> 100 µM
same,TGI,[17],> 100 µM
same,TGI,[18],> 100 µM
same,TGI,[19],> 100 µM
same,TGI,[20],> 100 µM
same,TGI,[21],> 100 µM
same,TGI,[22],> 100 µM
same,TGI,[23],> 100 µM
same,TGI,[24],> 100 µM
same,TGI,[25],> 100 µM
same,TGI,[26],> 100 µM
same,TGI,[27],> 100 µM
same,TGI,[28],> 100 µM
same,TGI,[29],61.9 µM
same,TGI,[30],55.3 µM
same,TGI,[31],> 100 µM
same,TGI,[32],> 100 µM
same,TGI,[33],> 100 µM
same,TGI,[34],> 100 µM
same,TGI,[35],78.7 µM
same,TGI,[36],> 100 µM
same,TGI,[37],> 100 µM
same,TGI,[38],> 100 µM
same,TGI,[39],> 100 µM
same,TGI,[40],> 100 µM
same,TGI,[41],> 100 µM
same,TGI,[42],> 100 µM
same,TGI,[43],> 100 µM
same,TGI,[44],83 µM
same,TGI,[45],> 100 µM
same,TGI,[46],> 100 µM
same,TGI,[47],> 100 µM
same,TGI,[48],> 100 µM
same,TGI,[49],> 100 µM
same,TGI,[50],> 100 µM
same,TGI,[51],86.6 µM
same,TGI,[52],> 100 µM
same,TGI,[53],79.3 µM
same,TGI,[54],> 100 µM
same,TGI,[55],> 100 µM
same,TGI,[56],> 100 µM
